Data from publication PMC7402526, “An in vitro quantitative systems pharmacology approach for deconvolving mechanisms of drug-induced, multilineage cytopenias” (PLoS Computational Biology, 2020).

Assays:
[1] = tested on: hematopoietic stem cells (HSCs); assay: Multi-lineage toxicity assay (MLTA), HSCs: concentration-response and QSP model fit; format: cell-based, human; conditions: Homo sapiens, Hematopoietic stem cell, 144 h
How it was run: (§1)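 Drug was added at time 0 to thawed human bone marrow CD34+ cells in SFEM II plus a cytokine cocktail. After 6 days at 37°C, subsets were counted by surface-marker flow with TruCount beads. Vehicle-normalized, donor-pooled data then fed an Emax model separating anti-proliferative from cell-killing effects.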

[2] = tested on: granulocyte progenitor (Gran-lin prog); assay: MLTA, GranP: concentration-response and QSP model fit; format: cell-based, human; conditions: Homo sapiens, 144 h
How it was run: (§2)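 Parameters come from fitting an Emax-based QSP model, with L1 regularization and Emax ranging 0–2, to vehicle-normalized, bead-corrected flow cytometry counts. Counts came from human bone marrow CD34+ cells treated from day 0 through a 6-day multi-lineage cytokine culture in SFEM II, using 2–7 donors per drug.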

[3] = tested on: monocyte progenitors (monocyte prog); assay: MLTA, MonoP: concentration-response and QSP model fit; format: cell-based, human; conditions: Homo sapiens, Monocyte, 144 h
How it was run: as §2

monocytes (monocyte-lin) = assay: MLTA, Mono: concentration-response and QSP model fit; format: cell-based, human; conditions: Homo sapiens, Monocyte, 144 h
How it was run: as §2

[4] = tested on: early erythroid cells (Eryth I); assay: MLTA, ErythI: concentration-response and QSP model fit; format: cell-based, human; conditions: Homo sapiens, 144 h
How it was run: as §2

[5] = tested on: lymphocyte progenitors (LymP); assay: MLTA, LymP: concentration-response and QSP model fit; format: cell-based, human; conditions: Homo sapiens, Lymphocyte, 144 h
How it was run: as §1

[6] = tested on: total viable cells (totalViableCells); assay: MLTA, total live cells concentration-response; format: cell-based; conditions: Homo sapiens, 144 h, 6 days, normalized to vehicle control, read-out: total_live normalized cell count
How it was run: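 Freeze-thawed primary human bone marrow CD34+ cells in SFEM II with cytokine cocktail, drug added day 0, 6 days at 37°C, 5% CO2. Live/dead counts by 17-parameter flow cytometry with DAPI exclusion, bead-normalized, volume-corrected to cells/mL. Normalized per donor to mean of six vehicle wells; 2–7 donors pooled.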

`O=C1CCC(N2C(=O)c3ccccc3C2=O)C(=O)N1` (stereo not shown) [thalidomide] was tested, and the activity at 0.0002 µM ([1]; dose 0.2 nM, 6 days, normalized to vehicle control, read-out: HSCs normalized cell count) was 67.6%, the activity at 0.001 µM ([1]; dose 1 nM, 6 days, normalized to vehicle control, read-out: HSCs normalized cell count) was 92.6% and the activity at 0.005 µM ([1]; dose 5 nM, 6 days, normalized to vehicle control, read-out: HSCs normalized cell count) was 109%. The activity at 0.025 µM ([1]; dose 25 nM, 6 days, normalized to vehicle control, read-out: HSCs normalized cell count) was 96.3%, the activity at 0.1 µM ([1]; dose 100 nM, 6 days, normalized to vehicle control, read-out: HSCs normalized cell count) was 84.9% and the activity at 0.5 µM ([1]; dose 500 nM, 6 days, normalized to vehicle control, read-out: HSCs normalized cell count) was 99.8%. For the same compound, the activity at 2.5 µM ([1]; dose 2500 nM, 6 days, normalized to vehicle control, read-out: HSCs normalized cell count) was 113%, the Emax ([1]; parameter from QSP model fitting, read-out: Emax_drug_HSC) was 0.000374% and the activity at 0.0002 µM ([2]; dose 0.2 nM, 6 days, normalized to vehicle control, read-out: GranPs normalized cell count) was 80.9%. For the same compound, the activity at 0.001 µM ([2]; dose 1 nM, 6 days, normalized to vehicle control, read-out: GranPs normalized cell count) was 97.2%, the activity at 0.005 µM ([2]; dose 5 nM, 6 days, normalized to vehicle control, read-out: GranPs normalized cell count) was 114% and the activity at 0.025 µM ([2]; dose 25 nM, 6 days, normalized to vehicle control, read-out: GranPs normalized cell count) was 130%. It also gave an activity at 0.1 µM ([2]; dose 100 nM, 6 days, normalized to vehicle control, read-out: GranPs normalized cell count) of 99%, an activity at 0.5 µM ([2]; dose 500 nM, 6 days, normalized to vehicle control, read-out: GranPs normalized cell count) of 94.5% and an activity at 2.5 µM ([2]; dose 2500 nM, 6 days, normalized to vehicle control, read-out: GranPs normalized cell count) of 109%. It also gave an Emax ([2]; parameter from QSP model fitting, read-out: Emax_drug_GranP) of 0.0121%, an activity at 0.0002 µM ([3]; dose 0.2 nM, 6 days, normalized to vehicle control, read-out: MonoPs normalized cell count) of 90.1% and an activity at 0.001 µM ([3]; dose 1 nM, 6 days, normalized to vehicle control, read-out: MonoPs normalized cell count) of 93.5%. For the same compound, the activity at 0.005 µM ([3]; dose 5 nM, 6 days, normalized to vehicle control, read-out: MonoPs normalized cell count) was 98.4%, the activity at 0.025 µM ([3]; dose 25 nM, 6 days, normalized to vehicle control, read-out: MonoPs normalized cell count) was 120% and the activity at 0.1 µM ([3]; dose 100 nM, 6 days, normalized to vehicle control, read-out: MonoPs normalized cell count) was 92%. The activity at 0.5 µM ([3]; dose 500 nM, 6 days, normalized to vehicle control, read-out: MonoPs normalized cell count) was 82.7%, the activity at 2.5 µM ([3]; dose 2500 nM, 6 days, normalized to vehicle control, read-out: MonoPs normalized cell count) was 104% and the Emax ([3]; parameter from QSP model fitting, read-out: Emax_drug_MonoP) was 0.00494%. It also gave an activity at 0.0002 µM (monocytes (monocyte-lin); dose 0.2 nM, 6 days, normalized to vehicle control, read-out: Mon normalized cell count) of 83.3%, an activity at 0.001 µM (monocytes (monocyte-lin); dose 1 nM, 6 days, normalized to vehicle control, read-out: Mon normalized cell count) of 94% and an activity at 0.005 µM (monocytes (monocyte-lin); dose 5 nM, 6 days, normalized to vehicle control, read-out: Mon normalized cell count) of 89.4%. For the same compound, the activity at 0.025 µM (monocytes (monocyte-lin); dose 25 nM, 6 days, normalized to vehicle control, read-out: Mon normalized cell count) was 106%, the activity at 0.1 µM (monocytes (monocyte-lin); dose 100 nM, 6 days, normalized to vehicle control, read-out: Mon normalized cell count) was 94.4% and the activity at 0.5 µM (monocytes (monocyte-lin); dose 500 nM, 6 days, normalized to vehicle control, read-out: Mon normalized cell count) was 99.9%. It also gave an activity at 2.5 µM (monocytes (monocyte-lin); dose 2500 nM, 6 days, normalized to vehicle control, read-out: Mon normalized cell count) of 97.3%, an Emax (monocytes (monocyte-lin); parameter from QSP model fitting, read-out: Emax_drug_Mono) of 0.00608% and an activity at 0.0002 µM ([4]; dose 0.2 nM, 6 days, normalized to vehicle control, read-out: ErythI normalized cell count) of 101%. For the same compound, the activity at 0.001 µM ([4]; dose 1 nM, 6 days, normalized to vehicle control, read-out: ErythI normalized cell count) was 120%, the activity at 0.005 µM ([4]; dose 5 nM, 6 days, normalized to vehicle control, read-out: ErythI normalized cell count) was 124% and the activity at 0.025 µM ([4]; dose 25 nM, 6 days, normalized to vehicle control, read-out: ErythI normalized cell count) was 122%. For the same compound, the activity at 0.1 µM ([4]; dose 100 nM, 6 days, normalized to vehicle control, read-out: ErythI normalized cell count) was 137%, the activity at 0.5 µM ([4]; dose 500 nM, 6 days, normalized to vehicle control, read-out: ErythI normalized cell count) was 114% and the activity at 2.5 µM ([4]; dose 2500 nM, 6 days, normalized to vehicle control, read-out: ErythI normalized cell count) was 136%. It also gave an Emax ([4]; parameter from QSP model fitting, read-out: Emax_drug_ErythroidI) of 0.00343%, an activity at 0.0002 µM ([5]; dose 0.2 nM, 6 days, normalized to vehicle control, read-out: LymP normalized cell count) of 109% and an activity at 0.001 µM ([5]; dose 1 nM, 6 days, normalized to vehicle control, read-out: LymP normalized cell count) of 105%. For the same compound, the activity at 0.005 µM ([5]; dose 5 nM, 6 days, normalized to vehicle control, read-out: LymP normalized cell count) was 123%, the activity at 0.025 µM ([5]; dose 25 nM, 6 days, normalized to vehicle control, read-out: LymP normalized cell count) was 126% and the activity at 0.1 µM ([5]; dose 100 nM, 6 days, normalized to vehicle control, read-out: LymP normalized cell count) was 94.6%. The activity at 0.5 µM ([5]; dose 500 nM, 6 days, normalized to vehicle control, read-out: LymP normalized cell count) was 76.6%, the activity at 2.5 µM ([5]; dose 2500 nM, 6 days, normalized to vehicle control, read-out: LymP normalized cell count) was 139% and the Emax ([5]; parameter from QSP model fitting, read-out: Emax_drug_LymP) was 0.0064%. The viability at 0.0002 µM ([6]; dose 0.2 nM) was 90.8%, the viability at 0.001 µM ([6]; dose 1 nM) was 99.8% and the viability at 0.005 µM ([6]; dose 5 nM) was 108%. For the same compound, the viability at 0.025 µM ([6]; dose 25 nM) was 116%, the viability at 0.1 µM ([6]; dose 100 nM) was 93.1% and the viability at 0.5 µM ([6]; dose 500 nM) was 91.7%. It also gave a viability at 2.5 µM ([6]; dose 2500 nM) of 104%.
